Read-outs that look alike come from different tables or passages of the source.
What was measured:
σ1R [1] = biological target: T1, σ1R (Rattus norvegicus, UniProt Q9R0C9); assay: In vitro σ1R competitive binding assay with (+)-[3H]pentazocine; set-up: from tissue; host or cells: brain of living Wistar rats (in vivo PET); conditions: radioligand (+)-[3H]pentazocine; Wistar rat brain homogenates; 37 °C
Text: The mixtures were quenched with buffer and filtered through Whatman® GF/C 25 mm filters soaked with 0.05% PEI solution.

σR = conditions: read-out: Ki (σ1R); published value using the σR ligand [3H]3-PPP; cited from earlier work
σ1R [2] = biological target: T1, σ1R; conditions: Wistar rats; for %RO calculated / %RO predicted: σ1R occupancy, [18F]fluspidine
Description: A series of doses were investigated, ranging from 0.05–15 mg/kg. […] There have been efforts to develop ligands with dual GluN1/2B and σ1R activity. Nonetheless, for the purpose of developing selective GluN1/2B ligands, one has to consider fundamentally reformulating the development strategy.
All non-aqueous reactions were performed under N2 atmosphere using flame-dried glassware and standard syringe/septa methods unless stated otherwise. Reactions were magnetically stirred and further monitored by thin layer chromatography (TLC) performed on Merck TLC aluminum sheets (silica gel 60 F254). TLC spots were visualized using UV light (λ = 254 nm) or through staining with KMnO4 solution. Chromatographic purification of products was performed using SiliaFlash P60 silica gel (Silicycle) for preparative column chromatography with a particle size of 40–63 μm (230–400 mesh). Reactions at −78 °C were cooled in a dry ice/acetone bath and reactions at 0 °C were cooled in an ice/water bath. Chemicals were purchased from ABCR, Acros Organics, Amatek Chemical, Fluorochem, Merck, Perkin Elmer and Sigma Aldrich and used without further purification. Solvents for TLC, extraction and flash column chromatography were of technical grade. Extra dry solvents for all non-aqueous reactions were supplied by Acros Organics (puriss., dried over molecular sieves, water content <0.005%). Deuterated solvents (D, 99.9%) were purchased from Cambridge Isotope Laboratories, Inc. NMR spectra of compounds 3, 7 and 8 are presented in the Supplementary Material (Section S1). Tritium labeling was performed by RC Tritec AG (Teufen, Switzerland). […] Positron emission tomography (PET) imaging was performed in Wistar rats according to a previously published procedure.
Standard uptake values (SUVs) are averaged from 0–90 min.

GluN1/2B [3] = conditions: cited from earlier work
GluN1/2B [4] = conditions: cited from earlier work; remark: listed apart in the source
σ1R [5] = conditions: cited from earlier work
[6] = set-up: method as in PMID 35710735; conditions: n = 4; cited from earlier work
GluN1/2B [7] = biological target: T2, GluN1/2B (Rattus norvegicus, UniProt P35439+Q00960); assay: In vitro GluN1/2B competitive binding assay with [3H]ifenprodil; conditions: radioligand [3H]ifenprodil; Wistar rat brain homogenates; 25 °C
T2 construct: from tissue; host or cells: Wistar rat whole brain homogenate
T2 sequence (Q00960 27-1482, other chains not shown): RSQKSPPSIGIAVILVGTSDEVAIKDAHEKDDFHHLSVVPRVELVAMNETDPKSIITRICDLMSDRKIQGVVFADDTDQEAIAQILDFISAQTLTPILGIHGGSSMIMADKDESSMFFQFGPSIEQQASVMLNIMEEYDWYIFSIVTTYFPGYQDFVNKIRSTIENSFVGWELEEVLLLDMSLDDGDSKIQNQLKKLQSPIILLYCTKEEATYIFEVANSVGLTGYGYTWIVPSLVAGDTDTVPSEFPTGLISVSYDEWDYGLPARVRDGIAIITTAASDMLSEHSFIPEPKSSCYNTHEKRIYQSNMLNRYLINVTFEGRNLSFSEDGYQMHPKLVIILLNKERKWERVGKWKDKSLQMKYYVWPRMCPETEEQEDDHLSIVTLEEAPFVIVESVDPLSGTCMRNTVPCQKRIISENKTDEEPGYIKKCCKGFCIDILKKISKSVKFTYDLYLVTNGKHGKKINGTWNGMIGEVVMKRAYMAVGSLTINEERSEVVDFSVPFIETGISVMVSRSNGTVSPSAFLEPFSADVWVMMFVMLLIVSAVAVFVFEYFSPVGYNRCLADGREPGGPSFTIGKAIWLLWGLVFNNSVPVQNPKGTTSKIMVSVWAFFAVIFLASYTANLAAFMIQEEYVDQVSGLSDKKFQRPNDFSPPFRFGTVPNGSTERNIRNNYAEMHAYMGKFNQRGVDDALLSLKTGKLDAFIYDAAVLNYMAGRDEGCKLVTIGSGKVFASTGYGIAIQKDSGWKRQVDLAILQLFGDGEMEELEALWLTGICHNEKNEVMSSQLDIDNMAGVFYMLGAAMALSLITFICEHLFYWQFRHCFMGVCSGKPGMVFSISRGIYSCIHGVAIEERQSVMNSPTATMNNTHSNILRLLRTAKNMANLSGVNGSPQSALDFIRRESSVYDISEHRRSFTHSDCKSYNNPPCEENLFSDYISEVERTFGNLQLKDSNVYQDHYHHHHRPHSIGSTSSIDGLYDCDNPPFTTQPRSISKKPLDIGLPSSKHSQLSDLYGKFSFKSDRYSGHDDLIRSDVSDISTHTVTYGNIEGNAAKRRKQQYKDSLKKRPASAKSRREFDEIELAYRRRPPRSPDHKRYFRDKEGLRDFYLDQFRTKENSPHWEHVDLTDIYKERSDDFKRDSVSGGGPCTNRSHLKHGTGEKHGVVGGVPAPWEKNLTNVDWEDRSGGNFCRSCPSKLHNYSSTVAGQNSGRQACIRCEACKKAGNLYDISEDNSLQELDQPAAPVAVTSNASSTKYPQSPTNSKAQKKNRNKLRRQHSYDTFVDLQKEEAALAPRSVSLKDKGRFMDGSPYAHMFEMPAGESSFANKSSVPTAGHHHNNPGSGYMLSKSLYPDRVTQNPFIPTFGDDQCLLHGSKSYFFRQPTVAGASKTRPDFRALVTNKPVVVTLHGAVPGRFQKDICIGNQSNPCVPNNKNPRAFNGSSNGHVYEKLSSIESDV
Description: (§1) Competitive binding assays were performed as previously reported. […] A dilution series of the test ligands was prepared ranging from 30 µM to 300 pM. […] Each measurement vial contained 0.5 mg/mL of brain homogenate proteins, 20 µL of cold ligand, 10 µL of radioligand and was diluted to 200 µL with HEPES buffer. The vials were incubated at 25 °C and 110 rpm for 1 h. The mixtures were quenched with buffer and filtered through Whatman® GF/C 25 mm filters soaked with 0.05% PEI solution. Filters were washed twice with cold buffer and placed in scintillation vials. Scintillation vials were filled with 2 mL Ultima Gold^TM LSC cocktail and measured in a Beckmann LS6500 liquid scintillator counter.

GluN1/2B [8] = biological target: T2, GluN1/2B; assay: In vitro GluN1/2B competitive binding assay with [3H]OF-NB1; conditions: radioligand [3H]OF-NB1; Wistar rat brain homogenates; 25 °C
Description: as §1

σ2R = biological target: σ2R; set-up: method as in earlier work; conditions: ref 18 (Hashimoto 2015); cited from earlier work

T1 sequence (Q9R0C9 whole entry): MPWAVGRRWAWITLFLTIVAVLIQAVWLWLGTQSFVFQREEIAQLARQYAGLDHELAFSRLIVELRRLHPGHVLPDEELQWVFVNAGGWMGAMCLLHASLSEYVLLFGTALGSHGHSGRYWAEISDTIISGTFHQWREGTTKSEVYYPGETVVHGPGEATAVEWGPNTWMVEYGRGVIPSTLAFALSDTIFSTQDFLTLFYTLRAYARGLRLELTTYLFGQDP

Question: With `C[C@@H]([C@@H](O)c1ccc(O)cc1)N1CCC(O)(c2ccccc2)CC1` [CP-101,606] as the compound, how does the Ki (σ1R [1]) read?
Answer: 94 ± 6 nM

Question: And the Ki (σR)?
Answer: 60 nM

Question: What about the “D50 (σ1R)” value (σ1R [2]; administered dose occupying 50% of σ1Rs, [18F]fluspidine PET) of the same compound?
Answer: 4.9 µmol/kg

Question: And the “blockade of [18F]fluspidine brain uptake” value (σ1R [2]; doses 0.05–15 mg/kg)?
Answer: dose-dependent blockade

Question: And the “%RO calculated” value (σ1R [2]; dose 0.05 mg/kg)?
Answer: 3.72%

Question: And the “%RO predicted” value (σ1R [2]; dose 0.05 mg/kg)?
Answer: 2.43%

Question: And the “%RO calculated” value (σ1R [2]; dose 3 mg/kg)?
Answer: 61.9%

Question: What about the “%RO predicted” value (σ1R [2]; dose 3 mg/kg) of the same compound?
Answer: 59.2%

Question: And the “%RO calculated” value (σ1R [2]; dose 7 mg/kg)?
Answer: 71.2%

Question: And the “%RO predicted” value (σ1R [2]; dose 7 mg/kg)?
Answer: 77.1%

Question: And the “%RO calculated” value (σ1R [2]; dose 15 mg/kg)?
Answer: 91.2%

Question: And the “%RO predicted” value (σ1R [2]; dose 15 mg/kg)?
Answer: 87.8%

Question: What about the “D50 (GluN1/2B)” value (GluN1/2B [3]) of the same compound?
Answer: 8.1 µmol/kg

Question: And the Ki (GluN1/2B [4]; reported literature value)?
Answer: 16 nM

Question: Which Ki (σ1R [5]; ref 22 (Ahmed et al. 2021)) does the source give for `Oc1ccc2c(c1)CCN(CCCCc1ccccc1F)CC2O` (stereo not shown) [OF-NB1] here?
Answer: 410 nM

Question: And the “log D7.4” value [6]?
Answer: 2.05 ± 0.08

Question: And the Ki (GluN1/2B [4]; ref 22 (Ahmed et al. 2021))?
Answer: 10.4 ± 4.7 nM

Question: Which results are given for `COc1ccc(CCN2CCN(CCCc3ccccc3)CC2)cc1OC` [SA-4503]?
Answer: Ki (GluN1/2B [7]): 51 ± 13 nM; Ki (GluN1/2B [8]): > 100000 nM

Question: With `CC(C(O)c1ccc(O)cc1)N1CCC(Cc2ccccc2)CC1` (stereo not shown) [[^3H]Ifenprodil] as the compound, how does the Ki (σ1R [5]; ref 18 (Hashimoto 2015)) read?
Answer: 13 nM

Question: And the Ki (GluN1/2B [4]; ref 17 (Alarcon et al. 2008))?
Answer: 11 nM

Question: And the Ki (σ2R)?
Answer: 1.89 nM

Source: publication PMC9416150, “Development and Validation of [^3H]OF-NB1 for Preclinical Assessment of GluN1/2B Candidate Drugs” (Pharmaceuticals, 2022)
